Experimental data reported in paper PMC8968952, “Modulation of ERCC1-XPF Heterodimerization Inhibition via Structural Modification of Small Molecule Inhibitor Side-Chains” (Frontiers in Oncology, 2022).

Tests used:
[1] = biological target: T1, ERCC1-XPF heterodimer in A549 cells (Homo sapiens, UniProt Q92889); design: method as in PMID 33399940; details: cited from earlier work; for PLA: inhibition of the interaction between ERCC1 and XPF (in words): A549 cells treated with 20 μM cisplatin and 1 μM inhibitor
T1 construct: endogenous in cells; host or cells: A549
T1 sequence (Q92889 1-916): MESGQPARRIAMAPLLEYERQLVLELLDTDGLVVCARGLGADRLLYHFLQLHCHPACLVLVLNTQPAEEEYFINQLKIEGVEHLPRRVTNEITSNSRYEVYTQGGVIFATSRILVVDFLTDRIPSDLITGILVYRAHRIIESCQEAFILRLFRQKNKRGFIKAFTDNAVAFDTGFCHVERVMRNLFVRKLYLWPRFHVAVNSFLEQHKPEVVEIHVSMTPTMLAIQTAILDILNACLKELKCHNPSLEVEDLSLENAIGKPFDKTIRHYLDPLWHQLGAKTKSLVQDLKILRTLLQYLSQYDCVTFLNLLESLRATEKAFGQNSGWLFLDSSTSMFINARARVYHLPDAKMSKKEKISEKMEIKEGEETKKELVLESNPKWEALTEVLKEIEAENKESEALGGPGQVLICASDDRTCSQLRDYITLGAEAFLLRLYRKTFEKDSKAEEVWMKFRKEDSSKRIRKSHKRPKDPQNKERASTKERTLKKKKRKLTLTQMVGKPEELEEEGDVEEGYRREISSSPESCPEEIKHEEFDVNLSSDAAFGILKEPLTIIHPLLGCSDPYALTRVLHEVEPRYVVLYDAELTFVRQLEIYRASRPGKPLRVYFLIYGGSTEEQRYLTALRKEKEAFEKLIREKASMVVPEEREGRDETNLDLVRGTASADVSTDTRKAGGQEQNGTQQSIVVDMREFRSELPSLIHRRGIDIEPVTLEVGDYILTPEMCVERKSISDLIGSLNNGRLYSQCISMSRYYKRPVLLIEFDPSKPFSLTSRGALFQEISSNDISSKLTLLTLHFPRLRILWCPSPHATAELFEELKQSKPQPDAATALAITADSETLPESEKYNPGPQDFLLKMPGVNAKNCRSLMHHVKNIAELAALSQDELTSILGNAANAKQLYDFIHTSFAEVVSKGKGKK

[2] = biological target: T2, ERCC1-XPF (Homo sapiens, UniProt Q92889); assay: Microplate fluorescence incision assay (endonuclease activity); type: biochemical; details: 10 μM inhibitor, 10 min preincubation
T2 construct: the final purity of the full-length ERCC1-XPF heterodimer was determined to be ~35%; His6; made in house; host or cells: E. coli BL21(DE3)
T2 sequence (Q92889 1-916): T1 sequence (Q92889 1-916)
Source text: Recombinant human ERCC1–XPF wild-type protein (containing polyhistidine (His-6) tags) was expressed from a bicistronic plasmid (kindly provided by Dr. Richard Wood, University of Texas MD Anderson Cancer Center, Smithville, TX) in the E. coli BL21(DE3) strain, Following previously described procedures ([70], [78]) the proteins extracted from E. coli were eluted from a ProBond Nickel-Chelating Resin (Thermo Fisher Scientific) and then a Hi-trap heparin column (GE Healthcare). Fractions containing ERCC1–XPF were dialyzed, concentrated, and stored at −80°C in 10 mM HEPES, pH 7.4, 2.5 mM β-mercaptoethanol, 0.01% CHAPS, 0.25 mM EDTA, 50% glycerol, and 25 mM NaCl. Based on polyacrylamide gel separation and Coomassie Blue staining, the final purity of the full-length ERCC1-XPF heterodimer was determined to be ~35%.
We employed a previously described protocol ([60], [70], [78]) in which the incision of the stem–loop substrate [6-FAM-5′-[…](20T)[…]-3′-dabcyl] (100 nM in 50 mM Tris-HCl, pH 8, 20 mM NaCl, 0.5 mM DDT, and 0.75 mM MnCl2) mediated by ERCC1-XPF (25 ng) in a total volume of 20 μL at 25°C was monitored by fluorescence using a FLUOstar Optima fluorimeter (BMG Labtech) with Optima software and excitation and emission wavelengths of 485 and 520 nm, respectively, for 5.5 min. The final concentration of inhibitor in the reaction was 10 μM prepared from a 200 μM stock solution in DMSO. With a molecular weight of 151 KDa for the XPF-ERCC1 heterodimer, a concentration of 25 ng of protein in 20 µl reaction buffer and a purity of 35%, the molar concentration of the enzyme was estimated to be 2.9 nM. Data were plotted using Microsoft Excel 2016.
An in vitro fluorescence-based assay was used to assess the ability of the synthesized compounds to inhibit the endonuclease activity of ERCC1-XPF. This assay has been previously described ([60], [70], [78]) and makes use of a stem-loop DNA substrate with a 5’-FAM fluorescent dye, and a 3’-dabcyl quencher. When ERCC1-XPF can cleave the DNA substrate, a 5’-FAM containing molecule is liberated from the stem-loop (and the quencher) and the fluorescence of the solution increases. The increase of the fluorescence of the solution can be observed in Figure 3A , in the absence of any inhibitor. To determine the influence of the inhibitory compounds, the protein was preincubated for 10 minutes with 10 μM of each inhibitor prior to addition of the substrate.

[3] = system: HCT-116 cells; assay: Clonogenic survival assay, UV treatment; type: cell-based, human; details: 0.5 μM
Experimental: HCT-116 cells (100–800 cells depending on the UV dose) were plated in triplicate in 60-mm Petri dishes in DMEM/F12 medium. Following overnight attachment of the cells in a humidified atmosphere containing 5% CO2 at 37°C, the cells were treated with 0.5 μM compound 6 or 10 in DMSO (as described in section 2.7) for 4 h before the medium was removed, and the cells exposed to increasing doses (0–10 J/m^2) of UV-C radiation. The cells were then cultured for a further 24 h in the presence of inhibitor and then for an additional 9 days in the absence of inhibitor to allow for colony formation. Colonies were stained with crystal violet and counted using a Colcount instrument (Oxford Optronix, Abingdon UK) to facilitate determination of plating efficiency and surviving fraction. Data were plotted using GraphPad Prism version 5.04 software.

[4] = system: HCT-116 cells; assay: Cellular repair of cyclobutane pyrimidine dimers (cellular NER) after UVC; type: cell-based, human; details: 2 μM
Experimental: We followed the protocol of Mirzayans et al. ([79]) with minor modifications as previously described ([70]). Inhibitor compounds were dissolved in DMSO and applied to a final DMSO concentration of 0.2% in media and 0.2% DMSO was used as the vehicle control. Mouse anti-thymine dimer monoclonal antibody (cat. no. MC-062, Kamiya Biomedical Company, Seattle, WA) was used for the immunofluorescence following UVC irradiation of the cells and fluorescent microscopic evaluation and measurement of fluorescence intensity were performed using MetaXpress, version 6.2.1.704, software (Molecular Devices, Sunnyvale, California). Data were plotted using GraphPad Prism version 5.04 software.
Immunofluorescent detection of cyclobutane pyrimidine dimers (CPD) generated in the DNA of HCT-116 cells after exposure to UVC radiation was used to measure NER. Our observations that approximately 80% of CPD were removed 24 hours post irradiation in the absence of any inhibitors mirrors previous observations ([70], [79]).

[5] = system: HCT-116 cells; assay: Clonogenic survival assay, cyclophosphamide treatment; type: cell-based, human
Experimental: […] The medium was then replaced with drug and inhibitor-free fresh medium. After incubation for another 9 days to allow for colony formation, the plates were stained with crystal violet, colonies were counted, and plating efficiency and surviving fraction were calculated. Data were plotted using GraphPad Prism version 5.04. software.

Q: For COc1ccc2nc3cc(Cl)ccc3c(Nc3ccc(O)c(CN4CCN(C)CC4)c3)c2c1 [Compound 1], which “PLA: inhibition of the interaction between ERCC1 and XPF (in words)” value [1] is on record?
A: clear inhibition of the interaction between ERCC1 and XPF

Q: Which “PLA: inhibition of the interaction between ERCC1 and XPF (in words)” value [1] does the source give for CN(C)CCN1CCN(Cc2cc(Nc3c4ccc(Cl)cc4nc4ccc(O)cc34)ccc2O)CC1 [Compound 5] here?
A: clear inhibition of the interaction between ERCC1 and XPF

Q: And the “PLA: disruption of ERCC1-XPF heterodimerization (in words)” value ([1]; A549 not treated with cisplatin, 1 μM inhibitor)?
A: significant disruption of ERCC1-XPF heterodimerization

Q: Which “inhibition of ERCC1-XPF endonuclease activity (in words, vs control and 4)” value (“inhibition … (in words, vs control and 4)” for short) [2] does the source give for COc1ccc2nc3cc(Cl)ccc3c(Nc3ccc(O)c(CN4CCN(CCCN(C)C5Cc6ccccc6C5)CC4)c3)c2c1 [Compound 8] here?
A: some inhibition of ERCC1-XPF endonuclease activity

Q: What does the source list for COc1ccc2nc3cc(Cl)ccc3c(Nc3ccc(O)c(CN4CCN(CCNCc5ccccc5)CC4)c3)c2c1 [Compound 10]?
A: sensitization to UVC radiation (in words) [3]: no sensitization of HCT-116 to UVC radiation; effect on CPD removal / cellular NER (in words) [4]: no significant effect on CPD removal; inhibition of ERCC1-XPF endonuclease activity (in words, vs control and 4) [2]: some inhibition of ERCC1-XPF endonuclease activity; sensitization to cyclophosphamide (in words) ([5]; 0.5 μM 6, 10 at 1.0 μM or 0.5 μM): no significant sensitization of HCT-116 cells to cyclophosphamide

Q: With COc1ccc2nc3cc(Cl)ccc3c(Nc3ccc(O)c(CN4CCN(CCNCc5cccs5)CC4)c3)c2c1 [Compound 11] as the compound, how does the “inhibition … (in words, vs control and 4)” value [2] read?
A: some inhibition of ERCC1-XPF endonuclease activity

Q: Which “inhibition … (in words, vs control and 4)” value [2] does the source give for CNC(=O)C(C)(C)CN1CCN(Cc2cc(Nc3c4ccc(Cl)cc4nc4ccc(OC)cc34)ccc2O)CC1 [Compound 12] here?
A: some inhibition of ERCC1-XPF endonuclease activity

Q: For COCCN1CCN(Cc2cc(Nc3c4ccc(Cl)cc4nc4ccc(OC)cc34)ccc2O)CC1 [Compound 15], which “inhibition … (in words, vs control and 4)” value [2] is on record?
A: some inhibition of ERCC1-XPF endonuclease activity

Q: With O=P1(N(CCCl)CCCl)NCCCO1 (stereo not drawn) [cyclophosphamide, reference compound] as the compound, how does the “cell survival, cyclophosphamide alone” value ([5]; 50 μM cyclophosphamide, no inhibitor) read?
A: 91.5%
